Measured values from paper PMC8765460 (Antimicrobial Agents and Chemotherapy, 2022).
Read-outs that look alike come from different tables or passages of the source.

Key:
[1] = test system: recombinant viruses containing participant-derived integrase sequences; settings: for Fold change in dolutegravir sensitivity: fold change in IC50 relative to wild-type, clinical cutoff 4.0
Protocol: HIV-1 genotyping and phenotyping of plasma samples at baseline and the first sample of the 2 required to meet CVW criteria were conducted by Monogram Biosciences (South San Francisco, CA) using PhenoSense Integrase, PhenoSense GT, and GeneSeq Integrase assays, with the PhenoSense GT Plus Integrase assay used as a backup alternative in case of initial resistance assay failure.

[2] = test system: HIV-1 variant clones (participant-derived integrase); experiment: Clonal integrase phenotyping of variant clones (Monogram Biosciences); assay type: cell-based; settings: fold change in IC50 relative to wild-type
[3] = target: G118R integrase-DNA complex (Human immunodeficiency virus type 1 group M subtype B, UniProt P04585, G1265R); experiment: Dissociation of 3H-labeled INSTIs from integrase-DNA complexes (scintillation proximity assay); assay type: binding, HIV-1; settings: for t1/2 (dissociative half-life): ln 2 divided by mean koff
Protocol: (§1) Dissociation of INSTIs from integrase-DNA complexes was evaluated as previously described ([35]). Briefly, biotinylated viral long-terminal-repeat DNA duplexes were prepared and attached to streptavidin-coated scintillation proximity assay imaging beads. Wild-type and R263K, G118R, or G118R/E138K mutant integrase-DNA-bead complexes were formed, and unbound protein was removed. […] Relative binding (RB) was calculated as the ratio of dissociation signal to high signal and fit with the equation RB = EP + ΔRB(e^−^k^off^t), where EP is the RB endpoint, koff is the dissociation rate constant, ΔRB is the change in RB, and t is time, using the SigmaPlot program (Systat Software, San Jose, CA).

[4] = target: G118R/E138K integrase-DNA complex (Human immunodeficiency virus type 1 group M subtype B, UniProt P04585, E1285K/G1265R); experiment: as above; assay type: binding, HIV-1; settings: for t1/2 (dissociative half-life): G118R, E138K integrase-DNA complex, ln 2 divided by mean koff
Protocol: as §1

[5] = target: R263K integrase-DNA complex (Human immunodeficiency virus type 1 group M subtype B, UniProt P04585, R1410K); experiment: as above; assay type: binding, HIV-1; settings: for t1/2 (dissociative half-life): ln 2 divided by mean koff
Protocol: as §1

[6] = target: T1, wild-type integrase-DNA complex (Human immunodeficiency virus type 1 group M subtype B, UniProt P04585); experiment: as above; assay type: binding, HIV-1; settings: for t1/2 (dissociative half-life): Wild-type integrase-DNA complex, ln 2 divided by mean koff; for koff: read-out: koff (mean ± SD)
Protocol: as §1

HIV-1 [7] = settings: 12 participants switched at week 48
Description: Confirmed virologic withdrawal criteria were defined as 2 consecutive measurements with a decrease in plasma HIV-1 RNA of <1.0 log10 copies/mL by week 16 (unless HIV-1 RNA levels were <400 copies/mL), plasma HIV-1 RNA levels of ≥400 copies/mL at or after week 24, or plasma HIV-1 RNA levels of ≥400 copies/mL after confirmed HIV-1 RNA levels of <400 copies/mL. Participants who met CVW criteria were withdrawn from the study. For this ad hoc assessment carried out after the week 48 analysis, participants with available data through 12 September 2019 were included.

HIV-1 [8] = test system: HIV-1; design: method as in PMID 30732940; settings: cited from earlier work
[9] = target: T1, wild-type integrase-DNA complex; settings: cited from earlier work
[10] = patient 1, Baseline, R263K clones (3 clones)
[11] = patient 1, Baseline, Wild-type clones (5 clones)
[12] = patient 1, CVW (wk 36), Wild-type clones (8 clones)
[13] = patient 2, Baseline, T66I clone (1 clone)
[14] = patient 2, Baseline, Wild-type clones (7 clones)
[15] = patient 2, CVW (wk 36), G118R clones (8 clones)
[16] = patient 3, Baseline, Wild-type clones (16 clones)
[17] = patient 3, CVW (wk 48), G118R, E138K, R263K clones (13 clones)
[18] = patient 3, CVW (wk 48), H51Y, G118R clones (3 clones)

## C[C@@H]1CCO[C@H]2Cn3cc(C(=O)NCc4ccc(F)cc4F)c(=O)c(O)c3C(=O)N12 [Dolutegravir, dolutegravir]
[1]; 6 participants with treatment-emergent INSTI resistance-associated substitutions
  change in in vitro dolutegravir resistance versus baseline levels: > 10 fold
[1]; participants with treatment-emergent integrase substitutions (6 participants)
  median fold change in dolutegravir susceptibility at CVW: 25
[1]; patient 1, Baseline, subtype C, INSTI mutation R263R/K
  Fold change in dolutegravir sensitivity: 1.03
[1]; patient 1, Wk 36 (CVW), no INSTI mutation
  Fold change in dolutegravir sensitivity: 0.79
[1]; patient 2, Baseline, subtype B
  Fold change in dolutegravir sensitivity: 1.02
[1]; patient 2, Wk 36 (CVW), G118R
  Fold change in dolutegravir sensitivity: 30
[1]; patient 3, Baseline, subtype C
  Fold change in dolutegravir sensitivity: 1.26
[1]; patient 3, Wk 48 (CVW), H51H/Y, G118R, E138E/K, 263R/K
  Fold change in dolutegravir sensitivity: 15
[1]; patient 4, Baseline, subtype A1, L74I
  Fold change in dolutegravir sensitivity: 0.93
[1]; patient 4, Wk 48 (CVW), L74I, G118G/R, E138E/K, 148Q/R, R263R/K
  Fold change in dolutegravir sensitivity: 20
[1]; patient 5, Baseline, subtype Complex
  Fold change in dolutegravir sensitivity: 0.59
[1]; patient 5, Wk 60 (CVW), E138K, G140S, Q148H, N155H
  Fold change in dolutegravir sensitivity: >106.45
[1]; patient 6, Baseline, subtype C, L74L/I
  Fold change in dolutegravir sensitivity: 0.6
[1]; patient 6, Wk 72 (CVW), T66T/I, L74I, G118R, E138E/K
  Fold change in dolutegravir sensitivity: 22
[1]; patient 7, Baseline, subtype C
  Fold change in dolutegravir sensitivity: 0.98
[1]; patient 7, Wk 168 (CVW), G118R
  Fold change in dolutegravir sensitivity: 28
[2]; [10]
  Fold change in median drug sensitivity: 1.81
[2]; [11]
  Fold change in median drug sensitivity: 0.87
[2]; [12]
  Fold change in median drug sensitivity: 0.77
[2]; [13]
  Fold change in median drug sensitivity: 0.33
[2]; [14]
  Fold change in median drug sensitivity: 0.93
[2]; [15]
  Fold change in median drug sensitivity: 30.5
[2]; [16]
  Fold change in median drug sensitivity: 1.08
[2]; [17]
  Fold change in median drug sensitivity: 13
[2]; [18]
  Fold change in median drug sensitivity: 11
[3]
  fold increase in dissociation rate constant (koff) relative to the wild type: 8.6 fold
  t1/2 (dissociative half-life): 10.7 h
[3]; listed as dolutegravir
  t1/2 (dissociative half-life): ~10 h
[4]; G118R plus E138K integrase-DNA complex
  fold increase in dissociation rate constant (koff) relative to the wild type: 9.0 fold
[4]
  t1/2 (dissociative half-life): 10.1 h
[5]
  fold increase in dissociation rate constant (koff) relative to the wild type: 1.8 fold
  t1/2 (dissociative half-life): 52 h
[5]; listed as dolutegravir
  t1/2 (dissociative half-life): ~50 h
[6]
  t1/2 (dissociative half-life): 92 h
  koff: 2.1e-06 ± 1e-07 s⁻¹
HIV-1 [7]
  INSTI resistance in participants who switched from ritonavir-boosted lopinavir to the dolutegravir regimen: None of the 12 participants
HIV-1 [8]; through the week 48 analysis
  participants meeting CVW who developed treatment-emergent genotypic and phenotypic INSTI resistance: 2 of 11
HIV-1 [8]; week 48, both in combination with 2 NRTIs
  virologic suppression (HIV-1 RNA levels of <50 copies/mL) versus comparator: superiority to ritonavir-boosted lopinavir

## Cc1nnc(C(=O)NC(C)(C)c2nc(C(=O)NCc3ccc(F)cc3)c(O)c(=O)n2C)o1 [Raltegravir, raltegravir]
[2]; [10]
  Fold change in median drug sensitivity: 1.09
[2]; [11]
  Fold change in median drug sensitivity: 0.88
[2]; [12]
  Fold change in median drug sensitivity: 0.89
[2]; [13]
  Fold change in median drug sensitivity: 0.58
[2]; [14]
  Fold change in median drug sensitivity: 1.18
[2]; [15]
  Fold change in median drug sensitivity: 24
[2]; [16]
  Fold change in median drug sensitivity: 1.03
[2]; [17]
  Fold change in median drug sensitivity: 2.03
[2]; [18]
  Fold change in median drug sensitivity: 4.43
[3]
  fold increase in dissociation rate constant (koff) relative to the wild type: 3.4 fold
  t1/2 (dissociative half-life): 2.7 h
[4]
  t1/2 (dissociative half-life): 3.2 h
[5]
  fold increase in dissociation rate constant (koff) relative to the wild type: no change in koff
  t1/2 (dissociative half-life): 9.6 h
[6]
  t1/2 (dissociative half-life): 9.2 h
  koff: 2.1e-05 ± 2e-06 s⁻¹
[9]
  t1/2 (dissociative half-life), previously measured: 8.8 h
